Consider three compounds from patent US4808711A, “Cephalosporin derivatives” (Sankei Pharmaceutical Co., Ltd., priority 1985, dated 1989).

A word on the MIC: it is the smallest concentration in the dilution series that meets the test's criterion for growth inhibition.

Assay type in all cases: cell-based
For assay [1], the system named is S. aureus TASAKI. As to the kind of experiment: MIC, S. aureus TASAKI. As to conditions: Staphylococcus aureus; S. aureus TASAKI; standard method of Japanese Chemotherapy Association; read-out: MIC. The procedure:
(§1) The minimum inhibition concentrations (MIC) of the compounds obtained by the present invention were measured according to the standard method of Japanese Chemotherapy Association.

Assay [2] concerns S. typhi 1099-77. Description: MIC, S. typhi 1099-77. Conditions: Salmonella enterica, TYPHI. The procedure:
as §1

In assay [3] the test system is S. dysenteriae 4379-60. Description: MIC, S. dysenteriae 4379-60. Conditions: Shigella dysenteriae, 437960. The procedure: as §1
Assay [4] relates to S. newport 563. As to the kind of experiment: MIC, S. newport 563. Conditions: Salmonella enterica, read-out: MIC. As for the experimental part: as §1
The subject of assay [5] is S. paratyphi A 144-12-93. As to the kind of experiment: MIC, S. paratyphi A 144-12-93. Conditions: Salmonella enterica, PARATYPHI
As for the experimental part: as §1

In assay [6] the test system is E. cloacae ATCC13047. Description: MIC, E. cloacae ATCC13047. Conditions: Enterobacter cloacae. As for the experimental part:
as §1

In assay [7] the test system is S. anatum 677-69. As to the kind of experiment: MIC, S. anatum 677-69. As to conditions: Salmonella enterica, 67769, read-out: MIC. As for the experimental part:
as §1

Assay [8] deals with P. mirabilis IFO3849. As to the kind of experiment: MIC, P. mirabilis IFO3849. As to conditions: Proteus mirabilis, read-out: MIC. As for the experimental part:
as §1

The subject of assay [9] is P. aeruginosa ATCC9721. As to the kind of experiment: MIC, P. aeruginosa ATCC9721. Conditions: Pseudomonas aeruginosa; P. aeruginosa ATCC9721; read-out: MIC. As for the experimental part: as §1
For assay [10], the system named is S. paratyphi C 33-76. As to the kind of experiment: MIC, S. paratyphi C 33-76. Conditions: Salmonella enterica, PARATYPHI
The procedure:
as §1

Assay [11] has as its system S. flexneri Y NCTC 9730. Description: MIC, S. flexneri Y NCTC 9730. Conditions: Shigella flexneri, NCTC9730, read-out: MIC. As for the experimental part:
as §1

Assay [12] concerns S. paratyphi B. As to the kind of experiment: MIC, S. paratyphi B. Conditions: Salmonella enterica, PARATYPHI
As for the experimental part: as §1

For assay [13], the system named is S. epidermidis ATCC14990. As to the kind of experiment: MIC, S. epidermidis ATCC14990. As to conditions: Staphylococcus epidermidis, read-out: MIC. As for the experimental part: as §1
Assay [14] concerns S. aureus Smith. Description: MIC, S. aureus Smith. As to conditions: Staphylococcus aureus, read-out: MIC. The procedure: as §1
Assay [15] concerns P. putida ATCC12633. Description: MIC, P. putida ATCC12633. As to conditions: Pseudomonas putida. The procedure:
as §1

Assay [16] relates to S. sonnei SH72-415. As to the kind of experiment: MIC, S. sonnei SH72-415. As to conditions: Shigella sonnei, SH72415, read-out: MIC. As for the experimental part: as §1
Assay [17] relates to P. vulgaris ATCC6398. As to the kind of experiment: MIC, P. vulgaris ATCC6398. Conditions: Proteus vulgaris, read-out: MIC. The procedure: as §1
Assay [18] relates to S. faecalis IFO3826. Description: MIC, S. faecalis IFO3826. As to conditions: Enterococcus faecalis, read-out: MIC. As for the experimental part: as §1
Assay [19] has as its system P. maltophilia ATCC13637. Description: MIC, P. maltophilia ATCC13637. As to conditions: Stenotrophomonas maltophilia. As for the experimental part:
as §1

In assay [20] the test system is S. typhimurium ATCC13311. As to the kind of experiment: MIC, S. typhimurium ATCC13311. Conditions: Salmonella enterica, read-out: MIC. As for the experimental part: as §1
Assay [21] deals with S. marcescens IFO12648. As to the kind of experiment: MIC, S. marcescens IFO12648. As to conditions: Serratia marcescens, read-out: MIC. The procedure: as §1
Assay [22] relates to E. coli ATCC25922. As to the kind of experiment: MIC, E. coli ATCC25922. Conditions: Escherichia coli, read-out: MIC. As for the experimental part:
as §1

Assay [23] deals with E. coli NIHJ JC-2. As to the kind of experiment: MIC, E. coli NIHJ JC-2. As to conditions: Escherichia coli, NIHJJC2, read-out: MIC. The procedure: as §1
In assay [24] the test system is P. vulgaris ATCC6380. As to the kind of experiment: MIC, P. vulgaris ATCC6380. As to conditions: Proteus vulgaris, read-out: MIC. The procedure: as §1
Assay [25] has as its system S. typhimurium IFO 12529. As to the kind of experiment: MIC, S. typhimurium IFO 12529. As to conditions: Salmonella enterica, read-out: MIC. As for the experimental part:
as §1

The subject of assay [26] is P. cepacia ATCC25416. As to the kind of experiment: MIC, P. cepacia ATCC25416. As to conditions: Burkholderia cepacia, read-out: MIC. The procedure:
as §1

In assay [27] the test system is S. aureus 209P JC-1. As to the kind of experiment: MIC, S. aureus 209P JC-1. As to conditions: Staphylococcus aureus; S. aureus 209P JC-1; read-out: MIC. The procedure:
as §1

In assay [28] the test system is S. aureus ATCC25923. As to the kind of experiment: MIC, S. aureus ATCC25923. As to conditions: Staphylococcus aureus; S. aureus ATCC25923; read-out: MIC. The procedure:
as §1

Assay [29] concerns C. freundii IFO12681. Description: MIC, C. freundii IFO12681. Conditions: Citrobacter freundii, read-out: MIC. The procedure:
as §1

Assay [30] concerns P. fluorescens ATCC13525. As to the kind of experiment: MIC, P. fluorescens ATCC13525. As to conditions: Pseudomonas fluorescens, read-out: MIC. The procedure:
as §1

The subject of assay [31] is S. flexneri 2a CDC 4807-62. As to the kind of experiment: MIC, S. flexneri 2a CDC 4807-62. As to conditions: Shigella flexneri, read-out: MIC. The procedure: as §1
In assay [32] the test system is K. pneumoniae ATCC27736. As to the kind of experiment: MIC, K. pneumoniae ATCC27736. As to conditions: Klebsiella pneumoniae, read-out: MIC. As for the experimental part: as §1
The subject of assay [33] is P. rettgeri ATCC14505. Description: MIC, P. rettgeri ATCC14505. Conditions: Providencia rettgeri, read-out: MIC. As for the experimental part:
as §1

Assay [34] concerns B. subtilis ATCC6633. As to the kind of experiment: MIC, B. subtilis ATCC6633. As to conditions: Bacillus subtilis; B. subtilis ATCC6633; read-out: MIC. As for the experimental part: as §1
Assay [35] relates to S. boyadii CDC 2064-59. Description: MIC, S. boyadii CDC 2064-59. As for the experimental part:
as §1

Assay [36] has as its system E. Coli GN5482. As to the kind of experiment: MIC, E. Coli GN5482. Conditions: Escherichia coli. The procedure: as §1
The subject of assay [37] is E. cloacae GN7471. Description: MIC, E. cloacae GN7471. As to conditions: Enterobacter cloacae. As for the experimental part:
as §1

Assay [38] has as its system E. coli W3630/Rms213. As to the kind of experiment: MIC, E. coli W3630/Rms213. As to conditions: Escherichia coli. As for the experimental part:
as §1

In assay [39] the test system is S. marcescens GN10851. As to the kind of experiment: MIC, S. marcescens GN10851. Conditions: Serratia marcescens. As for the experimental part: as §1
The test system of assay [40] is E. coli W3630/Rms212. Description: MIC, E. coli W3630/Rms212. As to conditions: Escherichia coli. As for the experimental part: as §1
Assay [41] has as its system P. morganii GN5407. Description: MIC, P. morganii GN5407. As to conditions: Morganella morganii. The procedure:
as §1

The subject of assay [42] is C. freundii GN7391. As to the kind of experiment: MIC, C. freundii GN7391. Conditions: Citrobacter freundii. As for the experimental part:
as §1

Assay [43] relates to E. coli W3630/Rte16. As to the kind of experiment: MIC, E. coli W3630/Rte16. Conditions: Escherichia coli. As for the experimental part: as §1
The test system of assay [44] is P. rettgeri GN4430. As to the kind of experiment: MIC, P. rettgeri GN4430. As to conditions: Providencia rettgeri. The procedure: as §1
In assay [45] the test system is P. aeruginosa GN10. Description: MIC, P. aeruginosa GN10. As to conditions: Pseudomonas aeruginosa. As for the experimental part: as §1
Assay [46] concerns P. vulgaris GN7919. Description: MIC, P. vulgaris GN7919. As to conditions: Proteus vulgaris. As for the experimental part: as §1

≈ marks a conversion by molar mass, not a printed value.

Regarding `Cn1nnnc1SCC1=C(C(=O)O)N2C(=O)C(NC(=O)C(=NOCC(=O)NNC(=O)c3ccc(O)c(O)c3)c3csc(N)n3)C2SC1` (stereo not drawn) [Example 62], the minimal inhibitory concentration (MIC) was 1.56 µg/mL (≈ 2.21 µM) in assay [1]; ≤ 0.006 µg/mL in [2]; 0.025 µg/mL (≈ 0.0354 µM) in assay [3]; 0.05 µg/mL (≈ 0.0708 µM) in [4]; 0.025 µg/mL (≈ 0.0354 µM) in [5]; 3.13 µg/mL (≈ 4.44 µM) in assay [6]. Also, the minimum inhibitory concentration (MIC) came out at 0.025 µg/mL (≈ 0.0354 µM) in assay [7]; 0.39 µg/mL (≈ 0.553 µM) in assay [8]; 0.1 µg/mL (≈ 0.142 µM) in [9]; 0.012 µg/mL (≈ 0.017 µM) in assay [10]; 0.78 µg/mL (≈ 1.11 µM) in assay [11]; 0.012 µg/mL (≈ 0.017 µM) in assay [12]. The MIC in [13] is 0.39 µg/mL (≈ 0.553 µM); in assay [14] it was 3.13 µg/mL (≈ 4.44 µM); in assay [15], 1.56 µg/mL (≈ 2.21 µM); in [16] it was 0.05 µg/mL (≈ 0.0708 µM); in assay [17], 0.05 µg/mL (≈ 0.0708 µM); in assay [18], > 100 µg/mL. Also, the MIC in assay [19] amounted to 1.56 µg/mL (≈ 2.21 µM); in assay [20], 0.025 µg/mL (≈ 0.0354 µM); in assay [21], 0.39 µg/mL (≈ 0.553 µM); in assay [22], 0.2 µg/mL (≈ 0.283 µM); in [23] it was 0.78 µg/mL (≈ 1.11 µM); in assay [24], 0.39 µg/mL (≈ 0.553 µM). The minimal inhibitory concentration (MIC) in assay [25] was determined as 0.05 µg/mL (≈ 0.0708 µM); in assay [26], 0.78 µg/mL (≈ 1.11 µM); in assay [27], 0.39 µg/mL (≈ 0.553 µM); in assay [28], 0.39 µg/mL (≈ 0.553 µM); in assay [29], 0.39 µg/mL (≈ 0.553 µM); in assay [30] it was 12.5 µg/mL (≈ 17.7 µM). The MIC in [31] came out at 0.1 µg/mL (≈ 0.142 µM); in assay [32] it was 0.012 µg/mL (≈ 0.017 µM); in assay [33], 1.56 µg/mL (≈ 2.21 µM); in assay [34], 0.39 µg/mL (≈ 0.553 µM); in [35] it was 0.39 µg/mL (≈ 0.553 µM).
For the compound `CC(=NNC(=O)NC(C(=O)NC1C(=O)N2C(C(=O)O)=C(CSc3nncs3)CSC12)c1csc(N)n1)c1cccc(O)c1` (stereo not drawn) [Example 104], the MIC in assay [36] is 0.78 µg/mL (≈ 1.18 µM); in assay [37], 3.13 µg/mL (≈ 4.73 µM); in [38] it was 0.1 µg/mL (≈ 0.151 µM); in assay [39] it was 100 µg/mL (≈ 151 µM); in [40] it was 0.39 µg/mL (≈ 0.589 µM); in [41] it was 0.39 µg/mL (≈ 0.589 µM). For the same compound, the MIC turned out to be 100 µg/mL (≈ 151 µM) in assay [42]; 0.2 µg/mL (≈ 0.302 µM) in assay [43]; 0.2 µg/mL (≈ 0.302 µM) in assay [44]; 6.25 µg/mL (≈ 9.44 µM) in [45]; 50 µg/mL (≈ 75.6 µM) in assay [46].
As for `CC(=O)Oc1cc(OC(C)=O)cc(C(=O)NNC(=O)NC(C(=O)NC2C(=O)N3C(C(=O)O)=C(CSc4nncs4)CSC23)c2csc(N)n2)c1` (stereo not drawn) [Example 118], the minimum inhibitory concentration (MIC) in assay [36] was found to be 1.56 µg/mL (≈ 2.04 µM); in assay [37], 6.25 µg/mL (≈ 8.18 µM); in assay [38], 0.2 µg/mL (≈ 0.262 µM); in assay [39] it was 100 µg/mL (≈ 131 µM); in [40] it was 0.39 µg/mL (≈ 0.511 µM); in assay [41] it was 0.78 µg/mL (≈ 1.02 µM). In addition, the minimal inhibitory concentration (MIC) in [42] was > 100 µg/mL; in assay [43], 0.39 µg/mL (≈ 0.511 µM); in assay [44], 0.39 µg/mL (≈ 0.511 µM); in assay [45], 6.25 µg/mL (≈ 8.18 µM); in assay [46] it was 100 µg/mL (≈ 131 µM).
